# Reference: patent publication EP4806891A1 (Kangbaida (Sichuan) Biotechnology Co., Ltd., priority 2023, dated 2025)
# Biological target: T1, HEK-Blue-hTLR7 cells (Homo sapiens, UniProt Q9NYK1)
# T1 construct: expressed in transfected cells; host or cells: HEK-Blue-hTLR7 cells (HEK293-derived reporter line)
# T1 sequence (Q9NYK1 27-1049): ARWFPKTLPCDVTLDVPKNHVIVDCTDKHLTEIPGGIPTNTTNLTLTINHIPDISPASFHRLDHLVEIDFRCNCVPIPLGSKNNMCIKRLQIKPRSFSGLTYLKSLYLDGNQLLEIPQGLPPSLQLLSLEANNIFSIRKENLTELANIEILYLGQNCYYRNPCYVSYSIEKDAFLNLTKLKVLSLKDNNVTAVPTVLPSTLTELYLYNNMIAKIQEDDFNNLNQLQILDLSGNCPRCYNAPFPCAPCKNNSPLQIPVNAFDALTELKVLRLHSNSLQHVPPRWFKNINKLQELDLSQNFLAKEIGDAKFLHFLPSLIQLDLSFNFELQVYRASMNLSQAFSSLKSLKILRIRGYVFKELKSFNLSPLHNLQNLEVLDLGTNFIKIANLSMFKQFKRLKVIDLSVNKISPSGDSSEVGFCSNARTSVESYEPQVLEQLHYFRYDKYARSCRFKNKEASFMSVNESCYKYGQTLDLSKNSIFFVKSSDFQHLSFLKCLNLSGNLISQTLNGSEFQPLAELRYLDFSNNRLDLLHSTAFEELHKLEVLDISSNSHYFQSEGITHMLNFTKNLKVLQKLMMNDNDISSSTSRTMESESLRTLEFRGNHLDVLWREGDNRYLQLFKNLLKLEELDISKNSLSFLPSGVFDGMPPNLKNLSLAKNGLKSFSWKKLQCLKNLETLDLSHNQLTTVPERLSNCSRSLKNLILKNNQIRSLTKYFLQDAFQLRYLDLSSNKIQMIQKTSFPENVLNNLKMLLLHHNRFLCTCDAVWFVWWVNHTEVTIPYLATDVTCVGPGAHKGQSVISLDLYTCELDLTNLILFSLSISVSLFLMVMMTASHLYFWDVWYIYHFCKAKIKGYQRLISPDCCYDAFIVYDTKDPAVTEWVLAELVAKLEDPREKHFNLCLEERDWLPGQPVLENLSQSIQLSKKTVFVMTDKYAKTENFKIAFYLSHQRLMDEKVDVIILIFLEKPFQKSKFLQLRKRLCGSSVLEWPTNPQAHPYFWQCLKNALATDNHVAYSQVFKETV
# Experiment: HEK-Blue-hTLR7 cell inhibition assay
# Format: cell-based
# Details: R848 0.8 µM, 16 h, OD 620 nm, read-out: TLR7 IC50
# Procedure, shortened: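 Cells were pre-incubated 4 h, then co-treated 16 h at 37 °C with compound (10 doses, 0.5–10000 nM final) plus R848 (0.8 µM for TLR7, 3 µM for TLR8) or ODN2006 (1 µM, TLR9). Reporter OD620 gave inhibition relative to DMSO blank and agonist-only controls; IC50 came from curve fitting.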
row,Compound,IC50
1,"CN(C)CCc1nnc([C@]23CN(c4ccc(C#N)c5ncccc45)C[C@@]2(C(F)(F)F)C3)o1 [Compound 51, 5-((1S,5R)-1-(5-(2-(dimethylamino)ethyl)-1,3,4-oxadiazol-2-yl)-5-(trifluoromethyl)-3-azabicyclo[3.1.0]hexan-3-yl)quinoline-8-carbonitrile]",< 100 nM
2,"N#Cc1ccc(N2C[C@]3(c4nnc(C56CCC(N)(CC5)CC6)o4)C[C@]3(C(F)(F)F)C2)c2cccnc12 [Compound 52, 5-((1S,5R)-1-(5-(4-aminobicyclo[2.2.2]octan-1-yl)-1,3,4-oxadiazol-2-yl)-5-(trifluoromethyl)-3-azabicyclo[3.1.0]hexan-3-yl)quinoline-8-carbonitrile]",< 100 nM
3,"CN(C)C12CCC(c3nnc([C@]45CN(c6ccc(C#N)c7ncccc67)C[C@@]4(C(F)(F)F)C5)o3)(CC1)CC2 [Compound 53, 5-((1S,5R)-1-(5-(4-(dimethylamino)bicyclo[2.2.2]octan-1-yl)-1,3,4-oxadiazol-2-yl)-5-(trifluoromethyl)-3-azabicyclo[3.1.0]hexan-3-yl)quinoline-8-carbonitrile]",< 100 nM
4,"N#Cc1ccc(N2C[C@]3(c4nnc([C@H]5CN(CC(N)=O)CCO5)o4)C[C@]3(C(F)(F)F)C2)c2cccnc12 [Compound 56, 2-((R)-2-(5-((1S,5R)-3-(8-cyanoquinolin-5-yl)-5-(trifluoromethyl)-3-azabicyclo[3.1.0]hexan-1-yl)-1,3,4-oxadiazol-2-yl)morpholino)acetamide]",< 100 nM
5,"N#Cc1ccc(N2C[C@]3(c4nnc(C5(F)CCNCC5)o4)C[C@]3(C(F)(F)F)C2)c2cccnc12 [Compound 60, 5-((1S,5R)-1-(5-(4-fluoropiperidin-4-yl)-1,3,4-oxadiazol-2-yl)-5-(trifluoromethyl)-3-azabicyclo[3.1.0]hexan-3-yl)quinoline-8-carbonitrile]",< 100 nM
6,"CN1CCC(c2nnc([C@]34CN(c5ccc(OC(F)(F)F)c6ncccc56)C[C@@]3(C(F)(F)F)C4)o2)CC1 [Compound 64, 2-(1-methylpiperidin-4-yl)-5-((1S,5R)-5-(trifluoromethyl)-3-(8-(trifluoromethoxy)quinolin-5-yl)-3-azabicyclo[3.1.0]hexan-1-yl)-1,3,4-oxadiazole]",< 100 nM
7,"FC(F)(F)c1ccc(N2C[C@]3(c4nnc(C5CCN(CC6CC6)CC5)o4)C[C@]3(C(F)(F)F)C2)c2cccnc12 [Compound 76, 2-(1-(cyclopropylmethyl)piperidin-4-yl)-5-((1S,5R)-5-(trifluoromethyl)-3-(8-(trifluoromethyl)quinolin-5-yl)-3-azabicyclo[3.1.0]hexan-1-yl)-1,3,4-oxadiazole]",< 100 nM
8,"CN1[C@@H]2CC[C@H]1C[C@H](c1nnc([C@]34CN(c5ccc(C(F)(F)F)c6ncccc56)C[C@@]3(C(F)(F)F)C4)o1)C2 [Compound 79, 2-((1R,3S,5S)-8-methyl-8-azabicyclo[3.2.1]octan-3-yl)-5-((1S,5R)-5-(trifluoromethyl)-3-(8-(trifluoromethyl)quinolin-5-yl)-3-azabicyclo[3.1.0]hexan-1-yl)-1,3,4-oxadiazole]",< 100 nM
9,"N#Cc1ccc(N2C[C@]3(c4nnc(C5CCNCC5)o4)C[C@]3(C(F)(F)F)C2)c2c(F)cnn12 [Compound 80, 3-fluoro-4-((1S,5R)-1-(5-(piperidin-4-yl)-1,3,4-oxadiazol-2-yl)-5-(trifluoromethyl)-3-azabicyclo[3.1.0]hexan-3-yl)pyrazolo[1,5-a]pyridine-7-carbonitrile]",< 100 nM

# Results, then the compound that gave them:
row,IC50,Compound
1,< 100 nM,"CN1CCC(F)(c2nnc([C@]34CN(c5ccc(C#N)c6ncccc56)C[C@@]3(C(F)(F)F)C4)o2)C1 (stereo partly drawn) [Compound 47, 5-((1S,5R)-1-(5-(3-fluoro-1-methylpyrrolidin-3-yl)-1,3,4-oxadiazol-2-yl)-5-(trifluoromethyl)-3-azabicyclo[3.1.0]hexan-3-yl)quinoline-8-carbonitrile]"
2,< 100 nM,"CN1CC(F)(c2nnc([C@]34CN(c5ccc(C#N)c6ncccc56)C[C@@]3(C(F)(F)F)C4)o2)C1 [Compound 49, 5-((1S,5R)-1-(5-(3-fluoro-1-methylazetidin-3-yl)-1,3,4-oxadiazol-2-yl)-5-(trifluoromethyl)-3-azabicyclo[3.1.0]hexan-3-yl)quinoline-8-carbonitrile]"
3,< 100 nM,"CN1CCC(c2nnc([C@]34CN(c5ccc(C#N)c6ncccc56)C[C@@]3(C(F)(F)F)C4)o2)C(F)C1 (stereo partly drawn) [Compound 50, 5-((1S,5R)-1-(5-(3-fluoro-1-methylpiperidin-4-yl)-1,3,4-oxadiazol-2-yl)-5-(trifluoromethyl)-3-azabicyclo[3.1.0]hexan-3-yl)quinoline-8-carbonitrile]"
4,< 100 nM,"N#Cc1ccc(N2C[C@]3(c4nnc(C56CCC(NC(=O)[C@@H]7COCCN7)(CC5)CC6)o4)C[C@]3(C(F)(F)F)C2)c2cccnc12 [Compound 54, (S)-N-(4-(5-((1S,5R)-3-(8-cyanoquinolin-5-yl)-5-(trifluoromethyl)-3-azabicyclo[3.1.0]hexan-1-yl)-1,3,4-oxadiazol-2-yl)bicyclo[2.2.2]octan-1-yl)morpholine-3-carboxamide]"
5,< 100 nM,"CN1CCC(c2nnc([C@]34CN(c5ccc(C#N)n6ncc(F)c56)C[C@@]3(C(F)(F)F)C4)o2)CC1 [Compound 57, 3-fluoro-4-((1S,5R)-1-(5-(1-methylpiperidin-4-yl)-1,3,4-oxadiazol-2-yl)-5-(trifluoromethyl)-3-azabicyclo[3.1.0]hexan-3-yl)pyrazolo[1,5-a]pyridine-7-carbonitrile]"
6,< 100 nM,"CN1CCC(c2nnc([C@]34CN(c5ccc(C#N)n6nccc56)C[C@@]3(C(F)(F)F)C4)o2)CC1 [Compound 59, 4-((1S,5R)-1-(5-(1-methylpiperidin-4-yl)-1,3,4-oxadiazol-2-yl)-5-(trifluoromethyl)-3-azabicyclo[3.1.0]hexan-3-yl)pyrazolo[1,5-a]pyridine-7-carbonitrile]"
7,< 100 nM,"COc1ccc(N2C[C@]3(c4nnc(C5CCN(C)CC5)o4)C[C@]3(C(F)(F)F)C2)c2cccnc12 [Compound 66, 2-((1S,5R)-3-(8-methoxyquinolin-5-yl)-5-(trifluoromethyl)-3-azabicyclo[3.1.0]hexan-1-yl)-5-(1-methylpiperidin-4-yl)-1,3,4-oxadiazole]"
8,< 100 nM,"CN1CCC(n2cc([C@]34CN(c5ccc(C#N)c6ncccc56)C[C@@]3(C(F)(F)F)C4)nn2)CC1 [Compound 71, 5-((1S,5R)-1-(1-(1-methylpiperidin-4-yl)-1H-1,2,3-triazol-4-yl)-5-(trifluoromethyl)-3-azabicyclo[3.1.0]hexan-3-yl)quinoline-8-carbonitrile]"
9,< 100 nM,"FC(F)(F)c1ccc(N2C[C@]3(c4nnc(C5CCNCC5)o4)C[C@]3(C(F)(F)F)C2)c2cccnc12 [Compound 75, 2-(piperidin-4-yl)-5-((1S,5R)-5-(trifluoromethyl)-3-(8-(trifluoromethyl)quinolin-5-yl)-3-azabicyclo[3.1.0]hexan-1-yl)-1,3,4-oxadiazole]"
10,< 100 nM,"NC(=O)CN1CCC(c2nnc([C@]34CN(c5ccc(C(F)(F)F)c6ncccc56)C[C@@]3(C(F)(F)F)C4)o2)CC1 [Compound 77, 2-(4-(5-((1S,5R)-5-(trifluoromethyl)-3-(8-(trifluoromethyl)quinolin-5-yl)-3-azabicyclo[3.1.0]hexan-1-yl)-1,3,4-oxadiazol-2-yl)piperidin-1-yl)acetamide]"
11,< 100 nM,"NC12CCC(c3nnc([C@]45CN(c6ccc(C(F)(F)F)c7ncccc67)C[C@@]4(C(F)(F)F)C5)o3)(CC1)CC2 [Compound 81, 4-(5-((1S,5R)-5-(trifluoromethyl)-3-(8-(trifluoromethyl)quinolin-5-yl)-3-azabicyclo[3.1.0]hexan-1-yl)-1,3,4-oxadiazol-2-yl)bicyclo[2.2.2]octan-1-amine]"
12,< 1000 nM,"CN1CCC(c2nnc([C@]34CN(c5ccc(C#N)n6ncc(Br)c56)C[C@@]3(C(F)(F)F)C4)o2)CC1 [Compound 83, 3-bromo-4-((1S,5R)-1-(5-(1-methylpiperidin-4-yl)-1,3,4-oxadiazol-2-yl)-5-(trifluoromethyl)-3-azabicyclo[3.1.0]hexan-3-yl)pyrazolo[1,5-a]pyridine-7-carbonitrile]"
